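Following 48 hours of exposure in 96-well plates, responses at five concentrations were used to interpolate endpoints linearly. GI50 marks 50% less growth.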 Calls of active or inactive are those of the source. Rule as the data show it: active = GI50 up to about 1.1 µM and inactive = higher.
Experiments:
Test in all cases: growth of human tumour cells (NCI), 48 h
[1] = tested on: U-251
[2] = tested on: HCT-116
[3] = tested on: SNB-19
[4] = tested on: MDA-N
[5] = tested on: OVCAR-5
[6] = tested on: HOP-62
[7] = tested on: SF-268
[8] = tested on: EKVX
[9] = tested on: T47D
[10] = tested on: SN12C
[11] = tested on: SNB-75
[12] = tested on: NCI-H226
[13] = tested on: SK-MEL-2
[14] = tested on: HT-29
[15] = tested on: MDA-MB-231
[16] = tested on: OVCAR-3
[17] = tested on: CCRF-CEM
[18] = tested on: SR
[19] = tested on: MDA-MB-435

Compound	GI50 [1]	GI50 [2]	GI50 [3]	GI50 [4]	GI50 [5]	GI50 [6]	GI50 [7]	GI50 [8]	GI50 [9]	GI50 [10]	GI50 [11]	GI50 [12]	GI50 [13]	GI50 [14]	GI50 [15]	GI50 [16]	GI50 [17]	GI50 [18]	GI50 [19]
COc1cccc(-c2cc(O)c3cc(OC)ccc3n2)c1	0.305 µM (active)	0.239 µM (active)	0.39 µM (active)	0.047 µM (active)	0.452 µM (active)	0.446 µM (active)	0.71 µM (active)	0.92 µM (active)	> 10 µM (inactive)	0.685 µM (active)	0.318 µM (active)	0.396 µM (active)	0.321 µM (active)	0.33 µM (active)	0.368 µM (active)	0.188 µM (active)	0.195 µM (active)	0.0815 µM (active)	–
CC1=NN2C=Nc3c(c(-c4ccc(Cl)cc4)cn3-c3ccc(C)cc3)C2N1 (stereo not given)	76.2 µM (inactive)	46.2 µM (inactive)	54.5 µM (inactive)	> 100 µM (inactive)	> 100 µM (inactive)	36.5 µM (inactive)	71.1 µM (inactive)	> 100 µM (inactive)	–	> 100 µM (inactive)	30.5 µM (inactive)	> 100 µM (inactive)	> 100 µM (inactive)	64.4 µM (inactive)	71.1 µM (inactive)	> 100 µM (inactive)	> 100 µM (inactive)	0.288 µM (active)	> 100 µM (inactive)
C/C(=C\COP(=O)(O)OP(=O)(O)O)CCCCCCOCc1ccccc1	> 100 µM (inactive)	> 100 µM (inactive)	> 100 µM (inactive)	–	> 100 µM (inactive)	> 100 µM (inactive)	> 100 µM (inactive)	> 100 µM (inactive)	> 100 µM (inactive)	> 100 µM (inactive)	> 100 µM (inactive)	> 100 µM (inactive)	–	> 100 µM (inactive)	> 100 µM (inactive)	> 100 µM (inactive)	> 100 µM (inactive)	> 100 µM (inactive)	> 100 µM (inactive)
O=C(O)CNc1ncc2c(n1)-c1ccccc1OC2	> 100 µM (inactive)	> 100 µM (inactive)	> 100 µM (inactive)	> 100 µM (inactive)	> 100 µM (inactive)	> 100 µM (inactive)	> 100 µM (inactive)	> 100 µM (inactive)	–	> 100 µM (inactive)	> 100 µM (inactive)	–	> 100 µM (inactive)	> 100 µM (inactive)	> 100 µM (inactive)	> 100 µM (inactive)	> 100 µM (inactive)	> 100 µM (inactive)	> 100 µM (inactive)
COCOCCCCCO[Si](C)(C)C(C)(C)C	15.8 µM (inactive)	12.9 µM (inactive)	16 µM (inactive)	–	16.9 µM (inactive)	–	5.19 µM (inactive)	20 µM (inactive)	–	17.2 µM (inactive)	30.3 µM (inactive)	–	16 µM (inactive)	14.4 µM (inactive)	–	14.4 µM (inactive)	16.7 µM (inactive)	18.2 µM (inactive)	–
Nc1ccc2nc(-c3cccc(C(F)(F)F)c3)cc(O)c2c1	49.3 µM (inactive)	–	46.1 µM (inactive)	–	43.2 µM (inactive)	47.2 µM (inactive)	–	44.7 µM (inactive)	–	61.8 µM (inactive)	27.3 µM (inactive)	–	–	34.1 µM (inactive)	50.7 µM (inactive)	–	28.8 µM (inactive)	25.1 µM (inactive)	20.3 µM (inactive)
C[C@@H]1CC[C@@H](C)[C@](C)(CCc2ccoc2)C/C=C\C=C/1C(=O)O	> 50 µM (inactive)	> 50 µM (inactive)	> 50 µM (inactive)	> 50 µM (inactive)	> 50 µM (inactive)	> 50 µM (inactive)	–	> 50 µM (inactive)	–	> 50 µM (inactive)	> 50 µM (inactive)	> 50 µM (inactive)	> 50 µM (inactive)	> 50 µM (inactive)	> 50 µM (inactive)	> 50 µM (inactive)	> 50 µM (inactive)	> 50 µM (inactive)	–
C#Cc1cccc(N2C(=O)CC(=P(c3ccccc3)(c3ccccc3)c3ccccc3)C2=O)c1	71.8 µM (inactive)	32.6 µM (inactive)	69 µM (inactive)	–	57 µM (inactive)	67.1 µM (inactive)	62.1 µM (inactive)	44.2 µM (inactive)	–	> 100 µM (inactive)	91.8 µM (inactive)	58.2 µM (inactive)	84.7 µM (inactive)	39.6 µM (inactive)	–	31.5 µM (inactive)	50.1 µM (inactive)	39.4 µM (inactive)	–
COc1cccc(Nc2nc(-c3cccs3)nc3cc(OC)c(OC)cc23)c1	23.8 µM (inactive)	26.4 µM (inactive)	28.4 µM (inactive)	–	31.9 µM (inactive)	27.8 µM (inactive)	40.9 µM (inactive)	35.8 µM (inactive)	42.8 µM (inactive)	21.3 µM (inactive)	32.8 µM (inactive)	37.6 µM (inactive)	35.8 µM (inactive)	24.8 µM (inactive)	23 µM (inactive)	24.3 µM (inactive)	–	11 µM (inactive)	31.3 µM (inactive)
CCOC(=O)C1=C(C)N(Cc2ccccc2)C2(O)C(OC)CC(=O)C3C(=O)N(c4ccccc4)C(=O)C132 (stereo not given)	6.53 µM (inactive)	6.3 µM (inactive)	16.3 µM (inactive)	–	13.8 µM (inactive)	6.81 µM (inactive)	9.33 µM (inactive)	23.7 µM (inactive)	4.28 µM (inactive)	10.6 µM (inactive)	–	15.1 µM (inactive)	7.57 µM (inactive)	4.9 µM (inactive)	13.5 µM (inactive)	7.41 µM (inactive)	3.91 µM (inactive)	3.55 µM (inactive)	5.05 µM (inactive)
Cc1ccc2c(c1)-c1c(C#N)c(N)nc(-c3ccccc3)c1CCS2(=O)=O	8.22 µM (inactive)	6.38 µM (inactive)	4.16 µM (inactive)	–	10.1 µM (inactive)	6.95 µM (inactive)	22.9 µM (inactive)	18.7 µM (inactive)	15.1 µM (inactive)	17.7 µM (inactive)	3.72 µM (inactive)	5.36 µM (inactive)	> 29.2 µM (inactive)	3.78 µM (inactive)	17.5 µM (inactive)	5.47 µM (inactive)	1.23 µM (inactive)	0.834 µM (active)	1.72 µM (inactive)
C[N+](C)=C/C=C(\Cl)c1ccc2ccccc2c1	11.4 µM (inactive)	2.76 µM (inactive)	21.7 µM (inactive)	–	19.9 µM (inactive)	17.8 µM (inactive)	22.9 µM (inactive)	24.5 µM (inactive)	12.4 µM (inactive)	19.1 µM (inactive)	21.5 µM (inactive)	17.3 µM (inactive)	25.2 µM (inactive)	7.64 µM (inactive)	14.6 µM (inactive)	6.24 µM (inactive)	1.66 µM (inactive)	1.39 µM (inactive)	16.7 µM (inactive)
CC(=O)CCC(=O)CC(O)(C(F)(F)F)C(F)(F)F	17.2 µM (inactive)	16.9 µM (inactive)	15.9 µM (inactive)	–	12.9 µM (inactive)	17.9 µM (inactive)	22.3 µM (inactive)	> 10 µM (inactive)	11.4 µM (inactive)	20.9 µM (inactive)	27.5 µM (inactive)	11.6 µM (inactive)	–	17.8 µM (inactive)	19.2 µM (inactive)	–	21.6 µM (inactive)	16.4 µM (inactive)	19.4 µM (inactive)
CSCCCNC(=O)c1csc(-c2csc(CCNC(=O)CNC(=O)OC(C)(C)C)n2)n1	> 100 µM (inactive)	> 100 µM (inactive)	> 100 µM (inactive)	> 100 µM (inactive)	> 100 µM (inactive)	> 100 µM (inactive)	> 100 µM (inactive)	> 100 µM (inactive)	–	> 100 µM (inactive)	> 100 µM (inactive)	> 100 µM (inactive)	> 100 µM (inactive)	> 100 µM (inactive)	> 100 µM (inactive)	> 100 µM (inactive)	43.1 µM (inactive)	> 100 µM (inactive)	> 100 µM (inactive)
COC(=O)/C=C\n1c(C)cc(=O)[nH]c1=O	> 100 µM (inactive)	> 100 µM (inactive)	> 100 µM (inactive)	> 100 µM (inactive)	> 100 µM (inactive)	> 100 µM (inactive)	> 100 µM (inactive)	> 100 µM (inactive)	> 100 µM (inactive)	> 100 µM (inactive)	58.2 µM (inactive)	> 100 µM (inactive)	> 100 µM (inactive)	> 100 µM (inactive)	–	> 100 µM (inactive)	> 100 µM (inactive)	> 100 µM (inactive)	> 100 µM (inactive)
Cc1cc2c(cc1Cl)SC(NNCCO)=NS2(=O)=O	> 100 µM (inactive)	> 100 µM (inactive)	> 100 µM (inactive)	–	–	> 100 µM (inactive)	> 100 µM (inactive)	> 100 µM (inactive)	> 100 µM (inactive)	–	> 100 µM (inactive)	> 100 µM (inactive)	> 100 µM (inactive)	> 100 µM (inactive)	> 100 µM (inactive)	–	> 100 µM (inactive)	> 100 µM (inactive)	> 100 µM (inactive)
CN(C)CCNC(=O)c1cccc2c1Oc1c(cccc1[N+](=O)[O-])O2	0.787 µM (active)	0.817 µM (active)	–	2.78 µM (inactive)	2.18 µM (inactive)	0.472 µM (active)	2.97 µM (inactive)	3.22 µM (inactive)	0.323 µM (active)	0.74 µM (active)	1.24 µM (inactive)	0.288 µM (active)	0.29 µM (active)	1.41 µM (inactive)	–	2.69 µM (inactive)	0.371 µM (active)	0.462 µM (active)	3.44 µM (inactive)

Reference: ChEMBL document CHEMBL1201862, “PubChem BioAssay data set” (2004)
